# Columns and labels:
# [1] = test system: isolated rabbit aortic rings; test: tissue or blood
# [2] = test system: blood; conditions: cited from earlier work
smiles,measurement,setting,value
"CCOC(=O)C(CO[N+](=O)[O-])(CO[N+](=O)[O-])C(=O)OCC [Bis-MA diethyl ester, Diethyl 2,2-bis(nitryloxymethyl)malonate]",EC50,"[1]; Oryctolagus cuniculus, read-out: pD2 value (converted)",251 nM
CCCCCCCCCCCCCCCCOCC(COP(=O)([O-])OCC[N+](C)(C)C)OC(C)=O (stereo not shown) [platelet activation factor],concentration inducing platelet aggregation,[2],0.1 nM
same,concentration inducing vasodilation,[2],0.1 nM
"O=[N+]([O-])OCC(CO)(CO)CO [PEMN, pentaerythrityl mononitrate]",pD2 value,[1],5
